Experimental data as given in publication PMC4620497 (Scientific Reports, 2015).

How the values were obtained:
[1] = molecular target: T1, YSK1 (Homo sapiens, UniProt O00506); test: KINOMEscan panel screen; format: binding; conditions: read-out: Percent Control(%)
T1 construct: purchased DiscoveRx KINOMEscan (Ambit Biosciences)

[2] = molecular target: T2, FLT1 (Homo sapiens, UniProt P17948); test: KINOMEscan panel screen; format: binding; conditions: read-out: Percent Control(%)
T2 construct: purchased DiscoveRx KINOMEscan (Ambit Biosciences)

[3] = molecular target: T3, CAMK2D (Homo sapiens, UniProt Q13557); test: KINOMEscan panel screen; format: binding; conditions: read-out: Percent Control(%)
T3 construct: purchased DiscoveRx KINOMEscan (Ambit Biosciences)

[4] = molecular target: T4, CDK4-cyclinD3 (Homo sapiens, UniProt P11802); test: KINOMEscan panel screen; format: binding; conditions: read-out: Percent Control(%)
T4 construct: purchased DiscoveRx KINOMEscan (Ambit Biosciences)

[5] = tested on: MV4-11 cells; test: Apoptosis assay (AnnexinV/PI staining); format: cell-based, human; conditions: 3 nM
Procedure: PI staining was used to detect the cell cycle status. […] The induction of apoptosis following treatment of MV4-11 cells was examined by AnnexinV/PI staining assays.
Flow cytometry was used for cell cycle and apoptosis assays. MV4-11 cells were treated with SKLB-677 for 24 h, and then the cells were harvested and washed with PBS. Cell Cycle and Apoptosis Analysis Kit (Beyotime) was used for cell cycle analysis and the Annexin V-FITC & PI Cell Apoptosis Analysis Kit (KeyGENE BioTECH) was used for apoptosis assays. The data was analyzed using FLOWJO software (V7.6.5).
Figure 2 SKLB-677 inhibited FLT3 activation and induced cell cycle arrest and apoptosis. (a) MV4-11 cells were treated with various concentrations of SKLB-677 or 0.1% DMSO for 1 h. The phosphorylation levels of FLT3 and downstream signal proteins were assessed using antibodies against total FLT3 (FLT3), phosphorylated Y589/591 FLT3 (p-FLT3), total STAT5 (STAT5), phosphorylated Y694 STAT5 (p-STAT5), total p44/42 MAPK (Erk1/2), and phosphorylated Y202/204 p44/42 MAPK (p-Erk1/2). β-actin was used as a loading control. (b) Primary PBMCs isolated from AML patients (FLT3-ITD positive) were treated with various concentrations of SKLB-677 or 0.1% DMSO for 6 h. The phosphorylation levels of FLT3 and downstream signal proteins were detected used the same method as that in panel a. […]

[6] = molecular target: T5, TLK2 (Homo sapiens, UniProt Q86UE8); test: KINOMEscan panel screen; format: binding; conditions: read-out: Percent Control(%)
T5 construct: purchased DiscoveRx KINOMEscan (Ambit Biosciences)

[7] = molecular target: T6, PIK3CA(M1043I) (Homo sapiens, UniProt P42336, M1043I); test: KINOMEscan panel screen; format: binding; conditions: read-out: Percent Control(%)
T6 construct: purchased DiscoveRx KINOMEscan (Ambit Biosciences)
T6 sequence (P42336 whole entry M1043I): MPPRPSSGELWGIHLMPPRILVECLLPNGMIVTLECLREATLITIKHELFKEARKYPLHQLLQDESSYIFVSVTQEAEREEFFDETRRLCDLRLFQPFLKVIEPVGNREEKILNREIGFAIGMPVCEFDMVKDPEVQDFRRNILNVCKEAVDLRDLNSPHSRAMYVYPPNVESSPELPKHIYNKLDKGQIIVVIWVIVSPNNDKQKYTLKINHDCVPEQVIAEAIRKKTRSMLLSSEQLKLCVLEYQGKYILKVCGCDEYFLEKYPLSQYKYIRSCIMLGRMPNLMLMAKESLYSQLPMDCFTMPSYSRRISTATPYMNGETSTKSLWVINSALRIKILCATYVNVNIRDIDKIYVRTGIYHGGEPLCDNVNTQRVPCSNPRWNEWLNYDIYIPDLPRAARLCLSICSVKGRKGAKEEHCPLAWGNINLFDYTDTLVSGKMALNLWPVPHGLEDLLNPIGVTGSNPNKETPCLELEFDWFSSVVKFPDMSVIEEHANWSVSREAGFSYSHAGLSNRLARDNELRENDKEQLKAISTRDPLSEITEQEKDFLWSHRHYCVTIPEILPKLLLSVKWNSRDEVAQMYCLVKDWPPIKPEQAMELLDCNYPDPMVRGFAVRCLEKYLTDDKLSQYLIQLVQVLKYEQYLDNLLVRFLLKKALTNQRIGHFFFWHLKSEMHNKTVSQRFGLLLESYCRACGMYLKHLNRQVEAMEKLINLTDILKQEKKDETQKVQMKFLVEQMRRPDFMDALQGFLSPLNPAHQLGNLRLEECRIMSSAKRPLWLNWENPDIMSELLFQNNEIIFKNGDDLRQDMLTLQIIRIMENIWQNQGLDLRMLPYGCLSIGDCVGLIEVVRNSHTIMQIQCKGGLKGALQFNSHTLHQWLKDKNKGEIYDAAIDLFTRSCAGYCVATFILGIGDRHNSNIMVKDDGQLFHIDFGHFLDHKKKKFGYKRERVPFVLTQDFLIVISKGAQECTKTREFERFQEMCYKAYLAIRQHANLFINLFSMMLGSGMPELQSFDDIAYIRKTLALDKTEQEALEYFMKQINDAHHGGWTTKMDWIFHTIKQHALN

[8] = molecular target: T7, MST1R (Homo sapiens, UniProt Q04912); test: KINOMEscan panel screen; format: binding; conditions: read-out: Percent Control(%)
T7 construct: purchased DiscoveRx KINOMEscan (Ambit Biosciences)

[9] = molecular target: T8, FLT3(N841I) (Homo sapiens, UniProt P36888, N841I); test: KINOMEscan panel screen; format: binding; conditions: read-out: Percent Control(%)
T8 construct: purchased DiscoveRx KINOMEscan (Ambit Biosciences)

[10] = tested on: B16; test: MTT cell viability assay; conditions: Mus musculus, B16, 72 h
[11] = molecular target: T9, JNK1 (Homo sapiens, UniProt P45983); test: KINOMEscan panel screen; format: binding; conditions: read-out: Percent Control(%)
T9 construct: purchased DiscoveRx KINOMEscan (Ambit Biosciences)
T9 sequence (P45983 whole entry): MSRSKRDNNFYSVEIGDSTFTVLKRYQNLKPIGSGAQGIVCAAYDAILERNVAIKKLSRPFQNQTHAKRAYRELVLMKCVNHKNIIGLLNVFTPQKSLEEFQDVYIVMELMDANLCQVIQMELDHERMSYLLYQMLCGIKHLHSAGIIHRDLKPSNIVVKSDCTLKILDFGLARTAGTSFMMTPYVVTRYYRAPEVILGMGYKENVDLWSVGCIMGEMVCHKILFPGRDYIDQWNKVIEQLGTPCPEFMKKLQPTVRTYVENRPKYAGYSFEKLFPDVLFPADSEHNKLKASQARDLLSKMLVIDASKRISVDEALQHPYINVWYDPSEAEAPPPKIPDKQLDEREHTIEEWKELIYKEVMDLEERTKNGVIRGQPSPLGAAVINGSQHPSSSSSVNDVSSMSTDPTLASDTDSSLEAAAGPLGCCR

[12] = molecular target: T10, ABL1(M351T)-phosphorylated (Homo sapiens, UniProt P00519, M351T); test: KINOMEscan panel screen; format: binding; conditions: read-out: Percent Control(%)
T10 construct: purchased DiscoveRx KINOMEscan (Ambit Biosciences)

[13] = molecular target: T11, MLK2 (Homo sapiens, UniProt Q02779); test: KINOMEscan panel screen; format: binding; conditions: read-out: Percent Control(%)
T11 construct: purchased DiscoveRx KINOMEscan (Ambit Biosciences)
T11 sequence (Q02779 whole entry): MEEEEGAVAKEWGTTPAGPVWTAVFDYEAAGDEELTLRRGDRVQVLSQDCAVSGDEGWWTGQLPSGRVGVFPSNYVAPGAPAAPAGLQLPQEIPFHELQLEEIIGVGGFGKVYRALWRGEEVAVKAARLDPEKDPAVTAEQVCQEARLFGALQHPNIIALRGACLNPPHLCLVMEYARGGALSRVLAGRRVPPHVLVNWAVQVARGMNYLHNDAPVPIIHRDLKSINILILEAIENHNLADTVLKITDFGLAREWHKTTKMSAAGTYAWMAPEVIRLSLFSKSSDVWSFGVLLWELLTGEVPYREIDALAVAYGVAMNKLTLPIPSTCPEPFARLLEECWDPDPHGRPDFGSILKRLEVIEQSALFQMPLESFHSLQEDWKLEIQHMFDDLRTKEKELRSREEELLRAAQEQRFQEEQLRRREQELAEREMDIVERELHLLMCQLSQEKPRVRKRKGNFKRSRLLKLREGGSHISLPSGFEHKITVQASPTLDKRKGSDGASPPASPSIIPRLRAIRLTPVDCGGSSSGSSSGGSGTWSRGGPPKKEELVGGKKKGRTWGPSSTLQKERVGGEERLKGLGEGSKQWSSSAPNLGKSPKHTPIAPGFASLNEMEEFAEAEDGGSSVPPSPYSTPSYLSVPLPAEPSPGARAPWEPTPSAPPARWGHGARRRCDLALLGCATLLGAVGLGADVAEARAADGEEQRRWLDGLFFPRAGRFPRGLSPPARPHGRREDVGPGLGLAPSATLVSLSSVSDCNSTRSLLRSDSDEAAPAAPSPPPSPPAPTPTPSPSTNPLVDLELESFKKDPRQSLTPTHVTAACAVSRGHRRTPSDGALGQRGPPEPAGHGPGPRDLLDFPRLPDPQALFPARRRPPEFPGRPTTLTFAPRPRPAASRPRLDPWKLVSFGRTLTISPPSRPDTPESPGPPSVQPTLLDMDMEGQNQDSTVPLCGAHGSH

[14] = molecular target: T12, PKNB(M.tuberculosis) (Mycobacterium tuberculosis, UniProt P9WI81); test: KINOMEscan panel screen; format: binding; conditions: read-out: Percent Control(%)
T12 construct: purchased DiscoveRx KINOMEscan (Ambit Biosciences)
T12 sequence (P9WI81 whole entry): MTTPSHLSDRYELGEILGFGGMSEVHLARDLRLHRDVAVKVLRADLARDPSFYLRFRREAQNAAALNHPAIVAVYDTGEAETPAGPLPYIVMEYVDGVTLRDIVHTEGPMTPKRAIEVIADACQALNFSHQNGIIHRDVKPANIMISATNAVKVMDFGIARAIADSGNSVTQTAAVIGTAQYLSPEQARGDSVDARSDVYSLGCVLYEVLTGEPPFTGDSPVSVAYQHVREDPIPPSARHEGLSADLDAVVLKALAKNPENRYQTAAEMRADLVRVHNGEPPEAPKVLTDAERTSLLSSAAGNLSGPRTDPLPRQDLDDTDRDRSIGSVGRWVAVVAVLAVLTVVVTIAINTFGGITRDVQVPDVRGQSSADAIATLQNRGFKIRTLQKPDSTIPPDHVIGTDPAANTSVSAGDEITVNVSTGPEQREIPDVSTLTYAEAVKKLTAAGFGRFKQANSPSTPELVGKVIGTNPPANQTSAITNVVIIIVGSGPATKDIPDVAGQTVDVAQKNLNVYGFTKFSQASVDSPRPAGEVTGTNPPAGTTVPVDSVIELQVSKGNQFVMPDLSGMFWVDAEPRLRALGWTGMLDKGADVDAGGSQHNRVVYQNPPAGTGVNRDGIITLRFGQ

[15] = molecular target: T13, CSNK1G3 (Homo sapiens, UniProt Q9Y6M4); test: KINOMEscan panel screen; format: binding; conditions: read-out: Percent Control(%)
T13 construct: purchased DiscoveRx KINOMEscan (Ambit Biosciences)
T13 sequence (Q9Y6M4 whole entry): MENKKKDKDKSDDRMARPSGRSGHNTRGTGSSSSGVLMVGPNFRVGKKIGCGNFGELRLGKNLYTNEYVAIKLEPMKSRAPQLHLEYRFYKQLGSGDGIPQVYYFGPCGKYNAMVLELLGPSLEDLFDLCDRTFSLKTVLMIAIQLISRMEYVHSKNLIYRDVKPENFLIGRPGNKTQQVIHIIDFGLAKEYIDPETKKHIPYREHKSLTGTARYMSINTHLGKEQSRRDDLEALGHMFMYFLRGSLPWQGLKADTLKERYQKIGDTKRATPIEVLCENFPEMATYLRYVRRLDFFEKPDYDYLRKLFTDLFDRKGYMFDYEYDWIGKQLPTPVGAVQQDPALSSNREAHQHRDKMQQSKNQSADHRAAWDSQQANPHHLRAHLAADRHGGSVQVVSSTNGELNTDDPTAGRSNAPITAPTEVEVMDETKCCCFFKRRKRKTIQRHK

[16] = molecular target: T14, p38-alpha (Homo sapiens, UniProt Q16539); test: KINOMEscan panel screen; format: binding; conditions: read-out: Percent Control(%)
T14 construct: purchased DiscoveRx KINOMEscan (Ambit Biosciences)
T14 sequence (Q16539 whole entry): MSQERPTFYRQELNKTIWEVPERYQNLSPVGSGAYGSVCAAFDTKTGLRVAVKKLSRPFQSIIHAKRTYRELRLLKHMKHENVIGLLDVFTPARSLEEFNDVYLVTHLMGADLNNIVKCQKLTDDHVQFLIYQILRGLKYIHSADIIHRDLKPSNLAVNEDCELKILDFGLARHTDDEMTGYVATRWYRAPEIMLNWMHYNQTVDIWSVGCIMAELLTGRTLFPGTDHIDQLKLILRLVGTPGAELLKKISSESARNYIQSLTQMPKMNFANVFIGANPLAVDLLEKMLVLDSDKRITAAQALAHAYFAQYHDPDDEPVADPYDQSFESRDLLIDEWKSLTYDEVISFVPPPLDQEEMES

[17] = tested on: phosphorylation of FLT3, STAT5 and Erk1/2 in MV4-11 cells; test: Western blot of FLT3 signaling in MV4-11 cells; format: cell-based, human; conditions: 1 h treatment
Procedure: Western blot analysis was performed as previously described[43]. […] Quantitative analysis of the protein level was performed with NIH image analysis software, ImageJ (normalized relative to the vehicle control).

[18] = molecular target: T15, EPHA3 (Homo sapiens, UniProt P29320); test: KINOMEscan panel screen; format: binding; conditions: read-out: Percent Control(%)
T15 construct: purchased DiscoveRx KINOMEscan (Ambit Biosciences)

[19] = molecular target: T16, EGFR(S752-I759del) (Homo sapiens, UniProt P00533, DEL752-759); test: KINOMEscan panel screen; format: binding; conditions: read-out: Percent Control(%)
T16 construct: purchased DiscoveRx KINOMEscan (Ambit Biosciences)

[20] = molecular target: T17, DMPK (Homo sapiens, UniProt Q09013); test: KINOMEscan panel screen; format: binding; conditions: read-out: Percent Control(%)
T17 construct: purchased DiscoveRx KINOMEscan (Ambit Biosciences)
T17 sequence (Q09013 1-629): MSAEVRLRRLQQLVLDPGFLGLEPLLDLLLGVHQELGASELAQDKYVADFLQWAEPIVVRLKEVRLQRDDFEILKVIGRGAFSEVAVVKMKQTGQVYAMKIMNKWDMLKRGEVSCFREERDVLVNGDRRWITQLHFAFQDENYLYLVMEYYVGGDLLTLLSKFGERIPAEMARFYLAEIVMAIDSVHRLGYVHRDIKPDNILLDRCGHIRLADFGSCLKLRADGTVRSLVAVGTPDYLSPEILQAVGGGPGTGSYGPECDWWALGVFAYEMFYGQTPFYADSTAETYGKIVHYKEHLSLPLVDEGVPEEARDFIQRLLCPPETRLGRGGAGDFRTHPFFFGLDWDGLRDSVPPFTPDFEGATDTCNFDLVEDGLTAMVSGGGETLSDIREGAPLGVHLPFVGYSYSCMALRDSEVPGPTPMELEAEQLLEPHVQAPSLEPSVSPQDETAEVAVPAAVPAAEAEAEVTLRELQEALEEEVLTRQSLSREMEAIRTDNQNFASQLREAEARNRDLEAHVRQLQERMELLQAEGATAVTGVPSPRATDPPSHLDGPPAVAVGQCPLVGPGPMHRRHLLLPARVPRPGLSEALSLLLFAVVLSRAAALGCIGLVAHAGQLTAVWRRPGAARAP

[21] = molecular target: T18, TGFBR2 (Homo sapiens, UniProt P37173); test: KINOMEscan panel screen; format: binding; conditions: read-out: Percent Control(%)
T18 construct: purchased DiscoveRx KINOMEscan (Ambit Biosciences)
T18 sequence (P37173 23-567): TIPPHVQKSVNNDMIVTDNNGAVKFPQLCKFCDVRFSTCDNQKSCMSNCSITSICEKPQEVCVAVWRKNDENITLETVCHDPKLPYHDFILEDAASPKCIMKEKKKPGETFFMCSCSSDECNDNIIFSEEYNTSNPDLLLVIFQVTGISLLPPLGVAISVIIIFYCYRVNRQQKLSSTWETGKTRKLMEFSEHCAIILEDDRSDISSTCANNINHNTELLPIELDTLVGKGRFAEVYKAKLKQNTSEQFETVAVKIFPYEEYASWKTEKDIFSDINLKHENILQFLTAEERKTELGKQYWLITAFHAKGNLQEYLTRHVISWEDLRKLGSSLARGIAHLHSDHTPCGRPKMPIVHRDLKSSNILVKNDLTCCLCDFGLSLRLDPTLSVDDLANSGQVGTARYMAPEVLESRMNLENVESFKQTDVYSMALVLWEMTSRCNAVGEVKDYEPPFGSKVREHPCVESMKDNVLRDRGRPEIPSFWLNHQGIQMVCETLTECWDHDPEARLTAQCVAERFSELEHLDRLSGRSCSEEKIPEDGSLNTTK

[22] = molecular target: T19, NEK6 (Homo sapiens, UniProt Q9HC98); test: KINOMEscan panel screen; format: binding; conditions: read-out: Percent Control(%)
T19 construct: purchased DiscoveRx KINOMEscan (Ambit Biosciences)

T1 sequence (O00506 whole entry): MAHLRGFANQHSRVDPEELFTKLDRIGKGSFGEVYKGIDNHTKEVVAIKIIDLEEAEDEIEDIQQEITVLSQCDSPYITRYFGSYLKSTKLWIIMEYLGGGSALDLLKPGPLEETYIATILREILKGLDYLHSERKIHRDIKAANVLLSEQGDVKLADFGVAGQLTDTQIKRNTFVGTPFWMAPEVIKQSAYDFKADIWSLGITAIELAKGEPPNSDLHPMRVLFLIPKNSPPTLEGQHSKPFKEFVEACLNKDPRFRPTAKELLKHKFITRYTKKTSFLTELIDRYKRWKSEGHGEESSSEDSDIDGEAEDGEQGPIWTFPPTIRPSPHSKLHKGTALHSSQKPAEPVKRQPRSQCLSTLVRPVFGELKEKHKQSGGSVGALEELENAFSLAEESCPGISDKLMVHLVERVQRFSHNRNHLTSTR

CC(C)(C)c1cc(NC(=O)Nc2ccc(Oc3ncnc4[nH]ncc34)c(F)c2)no1 [SKLB-677, 1-(4-(1H-pyrazolo[3,4-d]pyrimidin-4-yloxy)-3-fluorophenyl)-3-(5-tert-butylisoxazol-3-yl)urea]
remaining binding at 10 µM [1]: 35%
remaining binding at 10 µM [2]: 0.05%
remaining binding at 10 µM [3]: 100%
remaining binding at 10 µM [4]: 4.8%
apoptosis of AML cells [5]: about 50%
remaining binding at 10 µM [6]: 64%
remaining binding at 10 µM [7]: 100%
remaining binding at 10 µM [8]: 42%
remaining binding at 10 µM [9]: 0%
IC50 [10]: > 10000 nM
remaining binding at 10 µM [11]: 52%
remaining binding at 10 µM [12]: 5.6%
remaining binding at 10 µM [13]: 99%
remaining binding at 10 µM [14]: 100%
remaining binding at 10 µM [15]: 70%
remaining binding at 10 µM [16]: 0%
concentration at which activation of STAT5 and Erk1/2 was efficiently inhibited [17]: higher than 1 nM
IC50 ([17]; Homo sapiens, read-out: IC50, reduction in the phosphorylation level of FLT3): ~0.1 nM
remaining binding at 10 µM [18]: 24%
remaining binding at 10 µM [19]: 38%
remaining binding at 10 µM [20]: 100%
remaining binding at 10 µM [21]: 100%
remaining binding at 10 µM [22]: 99%
